Experimental findings from US10077261B2, “Imidazolin-5-one derivative useful as FASN inhibitors for the treatment of cancer” (Janssen Pharmaceutica NV, priority 2012, dated 2018) are described below.

SMILES strings stand for the structures.

In experiment [1] the test system is A2780 ovarian cells. Description: A2780 ovarian cell proliferation assay in lipid reduced medium, with palmitate (MTT). The format is cell-based. The conditions noted are these: Homo sapiens, A2780, 96 h; read-out: pIC50 A2780 Ovarian Cell, With Palmitate (converted). The procedure, abridged:
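Seeded cells were switched next day to lipid-reduced serum, exposed to compound and 25 μM palmitate complexed with fatty-acid-free BSA, and incubated 96 h. Proliferation was then determined by MTT absorbance at 544 nm, with a best-fit curve of signal against concentration.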

Experiment [2] addresses T1, hFASN enzyme (full length) (Homo sapiens, UniProt P49327).
T1 construct: 10 μL hFASN enzyme (full length, 300 ng, purified in house); made in house
Nature of the experiment: Fatty Acid Synthase (FASN) inhibition scintillation proximity assay. Format: biochemical. The settings on record: for inhibition at 10 µM: read-out: Human FASN % inhibition @ 10 μM, 10 μM test compound; for IC50: read-out: Human FASN pIC50 (converted). Summed up:
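Compounds at 0.01–30 μM were mixed with 300 ng purified full-length enzyme in 100 mM KH2PO4 pH 7.5, 1 mM DTT. Substrates ³H-acetyl-CoA and malonyl-CoA were then converted, and bead addition stopped the reaction. Signal was normalised to low and high plate controls and fitted by 4-parameter nonlinear regression.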

Experiment [3] concerns A2780 ovarian cells. Nature of the experiment: A2780 ovarian cell proliferation assay in lipid reduced medium, without palmitate (MTT). The format is cell-based. The conditions noted are these: Homo sapiens, A2780, 96 h; read-out: pIC50 A2780 Ovarian Cell, Without Palmitate (converted).
Experiment [4] deals with Fatty Acid Synthase Keto-reductase Domain (FASN KR) (Homo sapiens, UniProt P49327). Description: Fatty Acid Synthase keto-reductase domain (FASN KR) inhibition, NADPH oxidation at 340 nm.
Procedure: After 20 minutes incubation at room temperature the plate was measured again (T2).
The decrease in absorbance was calculated as (Absorbance before incubation T1)−(Absorbance following incubation T2).
A plot of Controlmin versus test compound concentration was fitted to a 4-parameter logistic curve using a non-linear least squares regression method.
Experiment [5] deals with LNCaP-Vancouver prostate cells. Nature of the experiment: In vitro LNCaP Vancouver prostate cell proliferation assay in lipid reduced medium. The settings on record: read-out: pIC50 LNCaP_Vancouver prostate cell (converted). The format is cell-based. How it is done:
LNCaP-Vancouver prostate cells were obtained from the Vancouver Prostate Cancer Centre. Cells were maintained in RPMI-1640, 10% Fetal Calf Serum (FCS, Hyclone), 2 mM glutamine and 50 μg/ml Gentamicin.
For the proliferation experiment 1500 LNCaP-Vancouver cells per well were seeded in a 384-well black with clear bottom plate (costar 3712BC) in 40 μl RPMI-1640, 10% Lipid reduced serum (LRS, Hyclone), 50 μg/ml Gentamicin and 2 mM Glutamine and incubated at 37° C., 5% CO2. The next day 10 μl of test compound/DMSO diluted in medium was added (3E-5M, 1E-5M, 3E-6M, 1E-6M, 3E-7M, 1E-7M, 3E-8M, 1E-8M final concentration). Compounds were tested in duplicate. After 96 h incubation at 37° C., 5% CO2 25 μl ATP-glow mix was added. The plate was incubated for 30 min at 37° C. and luminescence was measured with the Envision.
Analysis: Determination of pIC50 Values
pIC50 values were calculated as follows.
where mLC and mHC are the means of the low control wells and high control wells on the plate, after manual exclusion of outliers. The relation between the % Controlmin values and concentration was fitted to a 4-parameter logistic curve using a non-linear least squares regression method to determine the pIC50 value. Outlying data points were excluded manually to get a correct fit. The pIC50 corresponds to −log 10(IC50), if the IC50 is expressed in molar units (http://www.ncbi.nlm.nih.gov/books/NBK91994). The IC50 parameter was always determined by non-linear regression, but one or more of the other parameters may have been held fixed on a relevant input value, such as 0 for the bottom values.
For dose response curves with FASN inhibitors in LNCaP-Vancouver or PC-3M-Luc-C6 cells the curves bottom out around 30 to 40% of the control value. A standard fit PL2, forcing the lower bound to this level was used.
Representative compounds of the present invention were tested according to the procedure as described in Biological Example 4a and 4b above, with results as listed in Table 9, below.

Fatty Acid Synthase Keto-reductase Domain (FASN KR), sequence (P49327 whole entry, the tested form may be a part): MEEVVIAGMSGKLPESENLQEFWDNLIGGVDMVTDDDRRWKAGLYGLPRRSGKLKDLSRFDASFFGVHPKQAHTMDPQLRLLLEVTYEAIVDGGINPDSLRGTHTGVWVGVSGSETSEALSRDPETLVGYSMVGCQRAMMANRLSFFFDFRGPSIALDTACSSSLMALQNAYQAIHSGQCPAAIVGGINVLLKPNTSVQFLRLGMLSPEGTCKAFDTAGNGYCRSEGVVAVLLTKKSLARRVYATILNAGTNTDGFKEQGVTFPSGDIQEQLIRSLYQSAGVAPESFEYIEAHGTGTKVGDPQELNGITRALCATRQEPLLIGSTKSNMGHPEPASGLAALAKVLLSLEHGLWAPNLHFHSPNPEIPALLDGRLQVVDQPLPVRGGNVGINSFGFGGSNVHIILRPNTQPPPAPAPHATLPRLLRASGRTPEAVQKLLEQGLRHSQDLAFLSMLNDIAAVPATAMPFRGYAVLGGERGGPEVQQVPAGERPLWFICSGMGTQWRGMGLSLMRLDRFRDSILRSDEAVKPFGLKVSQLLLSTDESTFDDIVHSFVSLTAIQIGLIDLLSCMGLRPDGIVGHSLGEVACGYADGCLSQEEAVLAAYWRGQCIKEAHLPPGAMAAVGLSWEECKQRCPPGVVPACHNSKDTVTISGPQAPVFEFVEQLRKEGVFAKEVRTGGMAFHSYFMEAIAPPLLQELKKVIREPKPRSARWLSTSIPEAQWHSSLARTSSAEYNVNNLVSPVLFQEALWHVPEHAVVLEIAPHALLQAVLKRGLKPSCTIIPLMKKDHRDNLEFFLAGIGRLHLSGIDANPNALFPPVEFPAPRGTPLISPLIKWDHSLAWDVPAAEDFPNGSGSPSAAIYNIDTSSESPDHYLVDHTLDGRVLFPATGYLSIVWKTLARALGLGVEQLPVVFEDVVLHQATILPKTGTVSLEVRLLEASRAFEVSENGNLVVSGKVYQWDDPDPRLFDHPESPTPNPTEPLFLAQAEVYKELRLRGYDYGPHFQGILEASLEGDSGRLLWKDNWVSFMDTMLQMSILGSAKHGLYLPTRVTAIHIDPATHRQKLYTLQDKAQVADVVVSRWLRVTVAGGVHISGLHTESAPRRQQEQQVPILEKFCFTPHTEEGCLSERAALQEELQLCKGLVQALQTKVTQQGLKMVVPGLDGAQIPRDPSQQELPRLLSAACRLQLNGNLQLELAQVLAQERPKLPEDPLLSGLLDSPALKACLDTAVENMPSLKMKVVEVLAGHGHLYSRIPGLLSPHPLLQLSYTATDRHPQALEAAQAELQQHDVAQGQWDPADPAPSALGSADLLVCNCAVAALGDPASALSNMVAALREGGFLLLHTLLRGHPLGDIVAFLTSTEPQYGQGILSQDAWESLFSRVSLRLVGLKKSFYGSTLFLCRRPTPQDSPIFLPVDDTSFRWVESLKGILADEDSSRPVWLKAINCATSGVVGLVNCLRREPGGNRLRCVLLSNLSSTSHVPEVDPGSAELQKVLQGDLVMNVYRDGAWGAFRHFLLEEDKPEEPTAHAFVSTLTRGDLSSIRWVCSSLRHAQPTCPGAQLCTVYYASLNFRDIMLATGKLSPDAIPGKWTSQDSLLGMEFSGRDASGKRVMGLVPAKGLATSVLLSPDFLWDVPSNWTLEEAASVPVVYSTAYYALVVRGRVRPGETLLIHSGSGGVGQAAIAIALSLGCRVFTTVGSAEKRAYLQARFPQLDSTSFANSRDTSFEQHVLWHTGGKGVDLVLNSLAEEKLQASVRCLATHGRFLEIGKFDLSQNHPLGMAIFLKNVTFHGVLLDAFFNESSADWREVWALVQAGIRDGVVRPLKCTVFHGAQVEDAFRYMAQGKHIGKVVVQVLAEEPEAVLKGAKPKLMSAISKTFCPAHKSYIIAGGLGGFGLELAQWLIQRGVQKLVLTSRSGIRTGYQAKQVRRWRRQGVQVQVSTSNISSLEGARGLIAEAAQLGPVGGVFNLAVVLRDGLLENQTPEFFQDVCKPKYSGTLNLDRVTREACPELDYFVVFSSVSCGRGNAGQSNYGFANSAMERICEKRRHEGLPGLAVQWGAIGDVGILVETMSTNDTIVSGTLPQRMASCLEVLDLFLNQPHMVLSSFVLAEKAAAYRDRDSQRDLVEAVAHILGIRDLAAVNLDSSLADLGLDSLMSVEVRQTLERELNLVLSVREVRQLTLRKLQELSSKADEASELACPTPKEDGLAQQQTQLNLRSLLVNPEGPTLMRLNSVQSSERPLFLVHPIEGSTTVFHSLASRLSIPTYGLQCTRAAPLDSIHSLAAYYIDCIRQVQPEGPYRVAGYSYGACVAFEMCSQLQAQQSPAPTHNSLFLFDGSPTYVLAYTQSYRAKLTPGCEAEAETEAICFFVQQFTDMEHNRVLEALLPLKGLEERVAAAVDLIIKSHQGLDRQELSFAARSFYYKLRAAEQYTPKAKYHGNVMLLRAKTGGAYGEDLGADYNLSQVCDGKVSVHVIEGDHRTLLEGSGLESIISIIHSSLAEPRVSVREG
T1 sequence (P49327 whole entry): as the sequence (P49327 whole entry, the tested form may be a part) above

What is called inhibition is the relative decrease from the control value, in per cent. As for `Cc1cc(-c2ccc3cn(C)nc3c2)ccc1C1=NC2(CC2)C(=O)N1CC1CN(C(=O)C2(C)CC2)C1` [compound 336, 5-(2-methyl-4-(2-methyl-2H-indazol-6-yl)phenyl)-6-((1-(1-methylcyclopropanecarbonyl)azetidin-3-yl)methyl)-4,6-diazaspiro[2.4]hept-4-en-7-one], the IC50 was more than 10 µM with A2780 ovarian cells [1]; 0.0501 µM in experiment [2]; 0.02 µM in the experiment with A2780 ovarian cells [3]; 0.0692 µM in experiment [4]; 0.105 µM in experiment [5]. For the same compound, the inhibition at 10 µM in experiment [2] was 103%.

As for `Cn1ncc2cc(-c3ccc(C4=NC5(CC5)C(=O)N4CC4CN(C(=O)C5CC5)C4)c(F)c3)ccc21` [compound 347, 6-((1-(cyclopropanecarbonyl)azetidin-3-yl)methyl)-5-(2-fluoro-4-(1-methyl-1H-indazol-5-yl)phenyl)-4,6-diazaspiro[2.4]hept-4-en-7-one], the IC50 was more than 10 µM in the experiment on A2780 ovarian cells [1]; 0.049 µM in experiment [2]; approximately 0.0501 µM in the experiment on A2780 ovarian cells [3]; 0.12 µM in experiment [4]; 0.708 µM in experiment [5]. Further, in experiment [2], the inhibition at 10 µM is 98%.

For `Cn1ncc2cc(-c3ccc(C4=NC5(CC5)C(=O)N4C[C@@H]4CCN(C(=O)C5CC5)C4)nc3)ccc21` [compound 397, 6-{[(3R)-1-(Cyclopropylcarbonyl)pyrrolidin-3-yl]methyl}-5-[5-(1-methyl-1H-indazol-5-yl)pyridin-2-yl]-4,6-diazaspiro[2.4]hept-4-en-7-one], the IC50 was more than 10 µM with A2780 ovarian cells [1], 1.55 µM with A2780 ovarian cells [3], approximately 3.89 µM in experiment [4] and 3.02 µM in experiment [5]. Also, the “Human FASN pIC50” value in experiment [2] (hFASN enzyme full length, scintillation proximity assay, "~" = standard error of pIC50 larger than 0.5) was determined as 6.1. Also, the inhibition at 10 µM in experiment [2] came to 90%.

Regarding `Cc1sc2ccc(-c3ccc(C4=NC5(CC5)C(=O)N4C[C@@H]4CCN(C(=O)C5CC5)C4)cc3F)cc2c1C` [compound 406, 6-{[(3R)-1-(Cyclopropylcarbonyl)pyrrolidin-3-yl]methyl}-5-[4-(2,3-dimethyl-1-benzothiophen-5-yl)-3-fluorophenyl]-4,6-diazaspiro[2.4]hept-4-en-7-one], the IC50 with A2780 ovarian cells [1] was more than 10 µM; in experiment [2], 0.126 µM; in the experiment on A2780 ovarian cells [3] it was 6.03 µM; in experiment [4], 0.363 µM; in experiment [5] it was 7.08 µM. In addition, the inhibition at 10 µM in experiment [2] turned out to be 99%.

Consider `O=C(C1CC1)N1CC[C@@H](CN2C(=O)C3(CC3)N=C2c2ccc(-c3cccc4[nH]ncc34)cn2)C1` [compound 429, 6-{[(3R)-1-(Cyclopropylcarbonyl)pyrrolidin-3-yl]methyl}-5-[5-(1H-indazol-4-yl)pyridin-2-yl]-4,6-diazaspiro[2.4]hept-4-en-7-one], for which the IC50 with A2780 ovarian cells [1] is more than 10 µM; in experiment [2], 0.24 µM; in the experiment on A2780 ovarian cells [3] it was 0.417 µM; in experiment [4] it was 0.513 µM; in experiment [5], 1.32 µM. Moreover, in experiment [2], the inhibition at 10 µM was determined as 96%.

Regarding `Cc1cc(C2=NC3(CC3)C(=O)N2CC2CN(C(=O)C3CC3)C2)ccc1-c1ccc2[nH]ccc2c1` [compound 435, 6-{[1-(Cyclopropylcarbonyl)azetidin-3-yl]methyl}-5-[4-(1H-indol-5-yl)-3-methylphenyl]-4,6-diazaspiro[2.4]hept-4-en-7-one], the IC50 was more than 10 µM in the experiment with A2780 ovarian cells [1]; 0.263 µM in experiment [2]; approximately 0.933 µM in the experiment with A2780 ovarian cells [3]; 1.23 µM in experiment [4]; 3.47 µM in experiment [5]. The inhibition at 10 µM in experiment [2] was 91%.

Turning to `Cn1nc(C2CC2)c2cc(-c3ccc(C4=NC5(CC5)C(=O)N4C[C@@H]4CCN(C(=O)C5CC5)C4)cc3)ccc21` [compound 465, 6-{[(3R)-1-(Cyclopropylcarbonyl)pyrrolidin-3-yl]methyl}-5-[4-(3-cyclopropyl-1-methyl-1H-indazol-5-yl)phenyl]-4,6-diazaspiro[2.4]hept-4-en-7-one], the IC50 is more than 10 µM in the experiment with A2780 ovarian cells [1]; 0.151 µM in experiment [2]; 0.182 µM in the experiment on A2780 ovarian cells [3]; 0.2 µM in experiment [4]; 0.525 µM in experiment [5]. Further, the inhibition at 10 µM in experiment [2] came out at 99%.
